In brackets after ≈: the same amount, converted by molar mass.
Legend:
Format in all cases: functional
[1] = test system: Staphylococcus epidermidis; assay: Antibacterial activity against methicillin-sensitive Staphylococcus epidermidis 12-8 after 18 to 24 hrs by standard twofold serial dilution method
[2] = test system: Staphylococcus epidermidis; assay: Antibacterial activity against methicillin-resistant Staphylococcus epidermidis 12-6 after 18 to 24 hrs by standard twofold serial dilution method
[3] = test system: Mycobacterium tuberculosis; assay: Antimycobacterial activity against Mycobacterium tuberculosis H37Rv ATCC 27294 by MABA method
[4] = test system: Pseudomonas aeruginosa; assay: Antibacterial activity against Pseudomonas aeruginosa 12-12 after 18 to 24 hrs by standard twofold serial dilution method
[5] = test system: Klebsiella pneumoniae; assay: Antibacterial activity against extended-spectrum beta-lactamase producin Klebsiella pneumoniae 12-3 after 18 to 24 hrs by standard twofold serial dilution method
[6] = test system: Streptococcus pneumoniae; assay: Antibacterial activity against Streptococcus pneumoniae 12-18 after 18 to 24 hrs by standard twofold serial dilution method
[7] = test system: Escherichia coli; assay: Antibacterial activity against Escherichia coli 12-1 after 18 to 24 hrs by standard twofold serial dilution method
[8] = test system: Klebsiella pneumoniae; assay: Antibacterial activity against Klebsiella pneumoniae 12-4 after 18 to 24 hrs by standard twofold serial dilution method
[9] = test system: Escherichia coli; assay: Antibacterial activity against Escherichia coli ATCC 25922 after 18 to 24 hrs by standard twofold serial dilution method
[10] = test system: Staphylococcus epidermidis; assay: Antibacterial activity against methicillin-resistant Staphylococcus epidermidis 12-1 after 18 to 24 hrs by standard twofold serial dilution method
[11] = test system: Pseudomonas aeruginosa; assay: Antibacterial activity against Pseudomonas aeruginosa 12-14 after 18 to 24 hrs by standard twofold serial dilution method
[12] = test system: Staphylococcus epidermidis; assay: Antibacterial activity against methicillin-sensitive Staphylococcus epidermidis 12-3 after 18 to 24 hrs by standard twofold serial dilution method
[13] = test system: Staphylococcus epidermidis; assay: Antibacterial activity against methicillin-sensitive Staphylococcus epidermidis 12-1 after 18 to 24 hrs by standard twofold serial dilution method
[14] = test system: Escherichia coli; assay: Antibacterial activity against extended-spectrum beta-lactamase producing Escherichia coli 12-15 after 18 to 24 hrs by standard twofold serial dilution method
[15] = test system: Staphylococcus aureus; assay: Antibacterial activity against methicillin-resistant Staphylococcus aureus 12-5 after 18 to 24 hrs by standard twofold serial dilution method
[16] = test system: Staphylococcus aureus; assay: Antibacterial activity against Staphylococcus aureus ATCC 25923 after 18 to 24 hrs by standard twofold serial dilution method
[17] = test system: Staphylococcus aureus; assay: Antibacterial activity against methicillin-sensitive Staphylococcus aureus 12-4 after 18 to 24 hrs by standard twofold serial dilution method
[18] = test system: Staphylococcus aureus; assay: Antibacterial activity against methicillin-resistant Staphylococcus aureus 12-4 after 18 to 24 hrs by standard twofold serial dilution method
[19] = test system: Klebsiella pneumoniae; assay: Antibacterial activity against extended-spectrum beta-lactamase producin Klebsiella pneumoniae 12-4 after 18 to 24 hrs by standard twofold serial dilution method
[20] = test system: Escherichia coli; assay: Antibacterial activity against extended-spectrum beta-lactamase producing Escherichia coli 12-14 after 18 to 24 hrs by standard twofold serial dilution method
[21] = test system: Staphylococcus aureus; assay: Antibacterial activity against methicillin-resistant Staphylococcus aureus 12-2 after 18 to 24 hrs by standard twofold serial dilution method
[22] = test system: Klebsiella pneumoniae; assay: Antibacterial activity against Klebsiella pneumoniae 12-2 after 18 to 24 hrs by standard twofold serial dilution method
[23] = test system: Klebsiella pneumoniae; assay: Antibacterial activity against Klebsiella pneumoniae 12-1 after 18 to 24 hrs by standard twofold serial dilution method
[24] = test system: Staphylococcus epidermidis; assay: Antibacterial activity against methicillin-sensitive Staphylococcus epidermidis 12-6 after 18 to 24 hrs by standard twofold serial dilution method
[25] = test system: Klebsiella pneumoniae; assay: Antibacterial activity against extended-spectrum beta-lactamase producin Klebsiella pneumoniae 12-7 after 18 to 24 hrs by standard twofold serial dilution method
[26] = test system: Staphylococcus aureus; assay: Antibacterial activity against methicillin-sensitive Staphylococcus aureus 12-5 after 18 to 24 hrs by standard twofold serial dilution method
[27] = test system: Staphylococcus aureus; assay: Antibacterial activity against methicillin-sensitive Staphylococcus aureus 12-1 after 18 to 24 hrs by standard twofold serial dilution method
[28] = test system: Escherichia coli; assay: Antibacterial activity against extended-spectrum beta-lactamase producing Escherichia coli 12-2 after 18 to 24 hrs by standard twofold serial dilution method
[29] = test system: Staphylococcus aureus; assay: Antibacterial activity against methicillin-sensitive Staphylococcus aureus 12-2 after 18 to 24 hrs by standard twofold serial dilution method
[30] = test system: Klebsiella pneumoniae; assay: Antibacterial activity against extended-spectrum beta-lactamase producin Klebsiella pneumoniae 12-14 after 18 to 24 hrs by standard twofold serial dilution method
[31] = test system: Escherichia coli; assay: Antibacterial activity against extended-spectrum beta-lactamase producing Escherichia coli 12-3 after 18 to 24 hrs by standard twofold serial dilution method
[32] = test system: Streptococcus pneumoniae; assay: Antibacterial activity against Streptococcus pneumoniae ATCC 49619 after 18 to 24 hrs by standard twofold serial dilution method

Row | Compound | MIC [1] | MIC [2] | MIC [3] | MIC [5] | MIC [6] | MIC [8] | MIC [9] | MIC [10] | MIC [11] | MIC [12] | MIC [13] | MIC [14] | MIC [15] | MIC [16] | MIC [17] | MIC [18] | MIC [19] | MIC [21] | MIC [22] | MIC [23] | also measured
1 | CO/N=C1/CN(c2nc3c(cc2F)c(=O)c(C(=O)O)cn3[C@@H]2C[C@@H]2F)CC1CN (stereo not given in full) | 1 µg/mL (≈ 2.45 µM) | 4 µg/mL (≈ 9.82 µM) | 0.5 µg/mL (≈ 1.23 µM) | 32 µg/mL (≈ 78.6 µM) | 0.25 µg/mL (≈ 0.614 µM) | 0.25 µg/mL (≈ 0.614 µM) | 0.06 µg/mL (≈ 0.147 µM) | 4 µg/mL (≈ 9.82 µM) | 8 µg/mL (≈ 19.6 µM) | 0.5 µg/mL (≈ 1.23 µM) | 0.125 µg/mL (≈ 0.307 µM) | > 128 µg/mL | 16 µg/mL (≈ 39.3 µM) | 0.015 µg/mL (≈ 0.0368 µM) | 0.06 µg/mL (≈ 0.147 µM) | 32 µg/mL (≈ 78.6 µM) | 0.5 µg/mL (≈ 1.23 µM) | 16 µg/mL (≈ 39.3 µM) | 0.25 µg/mL (≈ 0.614 µM) | 0.25 µg/mL (≈ 0.614 µM) | MIC [4]: 0.5 µg/mL (≈ 1.23 µM); MIC [7]: 0.5 µg/mL (≈ 1.23 µM); MIC [20]: 64 µg/mL (≈ 157 µM); MIC [24]: 0.125 µg/mL (≈ 0.307 µM); MIC [25]: 2 µg/mL (≈ 4.91 µM); MIC [26]: 0.125 µg/mL (≈ 0.307 µM); MIC [27]: 0.125 µg/mL (≈ 0.307 µM); MIC [28]: 128 µg/mL (≈ 314 µM); MIC [29]: 0.125 µg/mL (≈ 0.307 µM); MIC [30]: 64 µg/mL (≈ 157 µM); MIC [31]: 32 µg/mL (≈ 78.6 µM); MIC [32]: 0.125 µg/mL (≈ 0.307 µM)
2 | CO/N=C1/CCN(c2cc3c(cc2F)c(=O)c(C(=O)O)cn3[C@@H]2C[C@@H]2F)CC1N (stereo not given in full) | 2 µg/mL (≈ 4.92 µM) | 2 µg/mL (≈ 4.92 µM) | 1 µg/mL (≈ 2.46 µM) | > 128 µg/mL | 2 µg/mL (≈ 4.92 µM) | 1 µg/mL (≈ 2.46 µM) | 0.25 µg/mL (≈ 0.615 µM) | 8 µg/mL (≈ 19.7 µM) | 32 µg/mL (≈ 78.7 µM) | 1 µg/mL (≈ 2.46 µM) | 0.5 µg/mL (≈ 1.23 µM) | > 128 µg/mL | 64 µg/mL (≈ 157 µM) | 0.5 µg/mL (≈ 1.23 µM) | 0.5 µg/mL (≈ 1.23 µM) | 128 µg/mL (≈ 315 µM) | 16 µg/mL (≈ 39.4 µM) | 64 µg/mL (≈ 157 µM) | 1 µg/mL (≈ 2.46 µM) | 2 µg/mL (≈ 4.92 µM) | MIC [4]: 4 µg/mL (≈ 9.84 µM); MIC [7]: 2 µg/mL (≈ 4.92 µM); MIC [20]: 128 µg/mL (≈ 315 µM); MIC [24]: 0.5 µg/mL (≈ 1.23 µM); MIC [25]: 4 µg/mL (≈ 9.84 µM); MIC [26]: 0.5 µg/mL (≈ 1.23 µM); MIC [27]: 0.5 µg/mL (≈ 1.23 µM); MIC [28]: > 128 µg/mL; MIC [29]: 0.5 µg/mL (≈ 1.23 µM); MIC [30]: > 128 µg/mL; MIC [31]: 16 µg/mL (≈ 39.4 µM); MIC [32]: 1 µg/mL (≈ 2.46 µM)
3 | CO/N=C1/CCN(c2nc3c(cc2F)c(=O)c(C(=O)O)cn3[C@@H]2C[C@@H]2F)CC1N (stereo not given in full) | < 0.008 µg/mL | 1 µg/mL (≈ 2.45 µM) | 4 µg/mL (≈ 9.82 µM) | > 128 µg/mL | 4 µg/mL (≈ 9.82 µM) | 1 µg/mL (≈ 2.45 µM) | 0.25 µg/mL (≈ 0.614 µM) | > 128 µg/mL | 128 µg/mL (≈ 314 µM) | < 0.008 µg/mL | 1 µg/mL (≈ 2.45 µM) | > 128 µg/mL | > 128 µg/mL | 1 µg/mL (≈ 2.45 µM) | 1 µg/mL (≈ 2.45 µM) | > 128 µg/mL | 64 µg/mL (≈ 157 µM) | > 128 µg/mL | 1 µg/mL (≈ 2.45 µM) | 2 µg/mL (≈ 4.91 µM) | MIC [4]: 16 µg/mL (≈ 39.3 µM); MIC [7]: 8 µg/mL (≈ 19.6 µM); MIC [20]: > 128 µg/mL; MIC [24]: 1 µg/mL (≈ 2.45 µM); MIC [25]: 32 µg/mL (≈ 78.6 µM); MIC [26]: 2 µg/mL (≈ 4.91 µM); MIC [27]: 2 µg/mL (≈ 4.91 µM); MIC [28]: > 128 µg/mL; MIC [29]: 2 µg/mL (≈ 4.91 µM); MIC [30]: > 128 µg/mL; MIC [31]: 16 µg/mL (≈ 39.3 µM); MIC [32]: 1 µg/mL (≈ 2.45 µM)
4 | O=C(O)c1cn(C2CC2)c2cc(N3CCNCC3)c(F)cc2c1=O [CIPROFLOXACIN] | 4 µg/mL (≈ 12.1 µM) | 16 µg/mL (≈ 48.3 µM) | 0.25 µg/mL (≈ 0.754 µM) | 32 µg/mL (≈ 96.6 µM) | 1 µg/mL (≈ 3.02 µM) | < 0.008 µg/mL | < 0.008 µg/mL | 8 µg/mL (≈ 24.1 µM) | 32 µg/mL (≈ 96.6 µM) | 2 µg/mL (≈ 6.04 µM) | 0.25 µg/mL (≈ 0.754 µM) | 64 µg/mL (≈ 193 µM) | 32 µg/mL (≈ 96.6 µM) | 0.25 µg/mL (≈ 0.754 µM) | 0.25 µg/mL (≈ 0.754 µM) | 64 µg/mL (≈ 193 µM) | 4 µg/mL (≈ 12.1 µM) | 64 µg/mL (≈ 193 µM) | 0.03 µg/mL (≈ 0.0905 µM) | 0.125 µg/mL (≈ 0.377 µM) | MIC [24]: 0.25 µg/mL (≈ 0.754 µM); MIC [25]: 0.5 µg/mL (≈ 1.51 µM); MIC [26]: 0.25 µg/mL (≈ 0.754 µM); MIC [27]: 0.25 µg/mL (≈ 0.754 µM); MIC [29]: 0.25 µg/mL (≈ 0.754 µM); MIC [30]: 64 µg/mL (≈ 193 µM); MIC [32]: 0.25 µg/mL (≈ 0.754 µM)
5 | CO/N=C1/CN(c2cc3c(cc2F)c(=O)c(C(=O)O)cn3[C@@H]2C[C@@H]2F)[C@H]1CN | 0.125 µg/mL (≈ 0.319 µM) | 4 µg/mL (≈ 10.2 µM) | 0.5 µg/mL (≈ 1.27 µM) | 64 µg/mL (≈ 163 µM) | 0.5 µg/mL (≈ 1.27 µM) | 0.015 µg/mL (≈ 0.0382 µM) | < 0.008 µg/mL | 8 µg/mL (≈ 20.4 µM) | 32 µg/mL (≈ 81.6 µM) | 0.25 µg/mL (≈ 0.637 µM) | 0.25 µg/mL (≈ 0.637 µM) | > 128 µg/mL | 32 µg/mL (≈ 81.6 µM) | 0.06 µg/mL (≈ 0.153 µM) | 0.25 µg/mL (≈ 0.637 µM) | 64 µg/mL (≈ 163 µM) | 8 µg/mL (≈ 20.4 µM) | 32 µg/mL (≈ 81.6 µM) | 0.125 µg/mL (≈ 0.319 µM) | 0.125 µg/mL (≈ 0.319 µM) | MIC [4]: 0.25 µg/mL (≈ 0.637 µM); MIC [7]: 1 µg/mL (≈ 2.55 µM); MIC [20]: 64 µg/mL (≈ 163 µM); MIC [24]: 0.25 µg/mL (≈ 0.637 µM); MIC [25]: 0.5 µg/mL (≈ 1.27 µM); MIC [26]: 0.5 µg/mL (≈ 1.27 µM); MIC [27]: 0.5 µg/mL (≈ 1.27 µM); MIC [28]: 128 µg/mL (≈ 326 µM); MIC [29]: 0.5 µg/mL (≈ 1.27 µM); MIC [30]: 64 µg/mL (≈ 163 µM); MIC [31]: 16 µg/mL (≈ 40.8 µM); MIC [32]: 0.125 µg/mL (≈ 0.319 µM)
